The record followed here is ChEMBL document CHEMBL1154793, “The lecanindoles, nonsteroidal progestins from the terrestrial fungus Verticillium lecanii 6144” (J Nat Prod, 2009).

Molecules are shown by their SMILES.

Experiment [1] has as its target T1, Progesterone receptor (Homo sapiens, UniProt P06401).
T1 sequence (P06401 whole entry): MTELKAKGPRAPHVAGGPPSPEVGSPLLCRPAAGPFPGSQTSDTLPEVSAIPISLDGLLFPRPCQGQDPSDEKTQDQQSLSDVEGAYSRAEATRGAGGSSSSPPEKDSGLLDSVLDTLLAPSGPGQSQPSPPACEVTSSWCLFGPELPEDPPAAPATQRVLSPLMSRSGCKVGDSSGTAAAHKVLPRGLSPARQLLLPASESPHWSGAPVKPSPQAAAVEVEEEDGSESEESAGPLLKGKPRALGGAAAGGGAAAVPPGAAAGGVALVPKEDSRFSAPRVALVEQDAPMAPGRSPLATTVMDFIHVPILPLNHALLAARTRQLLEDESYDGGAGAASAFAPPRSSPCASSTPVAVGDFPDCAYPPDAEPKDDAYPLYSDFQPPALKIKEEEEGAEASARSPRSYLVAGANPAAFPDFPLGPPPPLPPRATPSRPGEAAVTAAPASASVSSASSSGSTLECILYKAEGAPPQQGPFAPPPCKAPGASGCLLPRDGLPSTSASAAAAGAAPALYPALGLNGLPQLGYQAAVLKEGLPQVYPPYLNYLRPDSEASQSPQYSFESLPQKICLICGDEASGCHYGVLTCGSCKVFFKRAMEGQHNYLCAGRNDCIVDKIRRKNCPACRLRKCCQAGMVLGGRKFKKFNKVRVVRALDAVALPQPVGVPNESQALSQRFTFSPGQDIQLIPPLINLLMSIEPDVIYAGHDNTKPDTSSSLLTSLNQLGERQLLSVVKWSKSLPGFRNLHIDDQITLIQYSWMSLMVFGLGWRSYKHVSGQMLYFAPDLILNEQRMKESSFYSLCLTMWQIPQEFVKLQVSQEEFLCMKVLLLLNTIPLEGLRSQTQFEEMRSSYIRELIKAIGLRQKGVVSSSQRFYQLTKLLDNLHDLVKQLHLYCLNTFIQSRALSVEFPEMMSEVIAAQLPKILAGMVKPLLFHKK

The target of experiment [2] is T2, Mineralocorticoid receptor (Homo sapiens, UniProt P08235).
T2 sequence (P08235 whole entry): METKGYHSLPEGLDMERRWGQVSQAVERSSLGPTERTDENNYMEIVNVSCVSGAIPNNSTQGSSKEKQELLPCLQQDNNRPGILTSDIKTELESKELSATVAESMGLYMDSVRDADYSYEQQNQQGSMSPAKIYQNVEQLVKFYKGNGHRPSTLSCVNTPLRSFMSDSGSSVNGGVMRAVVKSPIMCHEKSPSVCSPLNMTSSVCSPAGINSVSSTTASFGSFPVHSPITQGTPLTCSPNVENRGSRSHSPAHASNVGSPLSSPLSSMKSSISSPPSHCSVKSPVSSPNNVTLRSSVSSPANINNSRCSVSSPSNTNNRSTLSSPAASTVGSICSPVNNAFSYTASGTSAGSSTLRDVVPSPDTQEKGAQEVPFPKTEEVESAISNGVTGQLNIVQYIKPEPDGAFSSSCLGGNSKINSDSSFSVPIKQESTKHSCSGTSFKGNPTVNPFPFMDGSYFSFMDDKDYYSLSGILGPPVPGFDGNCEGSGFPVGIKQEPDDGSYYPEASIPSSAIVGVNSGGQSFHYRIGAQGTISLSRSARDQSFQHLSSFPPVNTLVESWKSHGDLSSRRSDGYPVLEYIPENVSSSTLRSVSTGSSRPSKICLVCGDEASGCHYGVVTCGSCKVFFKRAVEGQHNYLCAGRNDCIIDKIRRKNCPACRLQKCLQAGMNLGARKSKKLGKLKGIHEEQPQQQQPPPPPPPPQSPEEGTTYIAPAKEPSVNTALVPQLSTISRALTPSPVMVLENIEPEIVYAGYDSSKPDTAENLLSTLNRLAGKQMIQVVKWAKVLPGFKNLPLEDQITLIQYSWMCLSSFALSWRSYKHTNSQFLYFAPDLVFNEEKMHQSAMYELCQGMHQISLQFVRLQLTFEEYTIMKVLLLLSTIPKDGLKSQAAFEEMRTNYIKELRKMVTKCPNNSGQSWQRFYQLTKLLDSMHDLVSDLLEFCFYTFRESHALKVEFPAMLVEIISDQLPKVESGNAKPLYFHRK
Description: Antagonist activity at mineralocorticoid receptor ligand binding domain expressed in african green monkey COS7 cells co-transfected with Gal4-LBD by luciferase reporter gene assay

The target in experiment [3] is T3, Estrogen receptor (Homo sapiens) (UniProt P03372).
T3 sequence (whole entry): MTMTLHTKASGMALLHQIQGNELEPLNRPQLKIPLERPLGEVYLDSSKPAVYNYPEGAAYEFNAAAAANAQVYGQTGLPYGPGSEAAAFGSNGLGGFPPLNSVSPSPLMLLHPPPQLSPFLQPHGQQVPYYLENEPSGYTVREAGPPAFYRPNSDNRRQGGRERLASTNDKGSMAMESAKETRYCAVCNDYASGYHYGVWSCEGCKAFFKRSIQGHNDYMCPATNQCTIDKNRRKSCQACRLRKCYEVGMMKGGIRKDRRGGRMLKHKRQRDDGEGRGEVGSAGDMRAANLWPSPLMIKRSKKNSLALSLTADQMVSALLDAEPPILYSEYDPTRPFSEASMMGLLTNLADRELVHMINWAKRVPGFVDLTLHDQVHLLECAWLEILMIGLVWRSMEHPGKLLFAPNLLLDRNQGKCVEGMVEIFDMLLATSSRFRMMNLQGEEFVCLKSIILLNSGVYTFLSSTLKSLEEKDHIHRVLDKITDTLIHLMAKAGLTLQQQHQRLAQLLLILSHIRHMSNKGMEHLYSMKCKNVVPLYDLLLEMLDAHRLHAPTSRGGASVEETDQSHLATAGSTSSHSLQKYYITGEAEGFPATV
The experiment in a line: Agonist activity at estrogen receptor alpha ligand binding domain expressed in african green monkey COS7 cells co-transfected with Gal4-LBD by luciferase reporter gene assay relative to control. The experiment is classed as cell-based. The following applies: COS-7.

Experiment [4] concerns the target T4, Progesterone receptor (Homo sapiens) (UniProt P06401).
T4 sequence (whole entry): T1 sequence (P06401 whole entry)
The experiment in a line: Ratio of compound EC50 to progesterone EC50 for progesterone receptor in human T47D cells. The format is cell-based.

The target of experiment [5] is T1, Progesterone receptor. As to the kind of experiment: Displacement of [3H]progesterone from progesterone receptor in human T47D cells after 3 hrs by scintillation counting. The experiment is classed as cell-based.

On to `CC1(C)C(=O)CC[C@]2(C)[C@@]3(C)c4[nH]c5ccccc5c4C[C@@H]3CC[C@@]12O` [LECANINDOLE B], for which it took 0.0003 µM to reach a half-maximal effect on Progesterone receptor [1] (EC50). Moreover, the IC50 in experiment [2] is > 10000 µM. Besides, the Activity in experiment [3] was 8%.
`CC1(C)[C@H](O)CC[C@]2(C)[C@@]3(C)c4[nH]c5ccccc5c4C[C@@H]3CC[C@@]12O` [LECANINDOLE D]: the Ratio EC50 in experiment [4] is 10. This compound also displayed an EC50 at Progesterone receptor [1] of 0.0011 µM. Besides, the IC50 is 0.0573 µM on Progesterone receptor [5] and > 3000 µM in experiment [2]. Besides, in experiment [3], the Activity was 35%.
